One assay concerns the target T1, Peripheral CCK receptors (Rattus norvegicus, UniProt P30551).
T1 construct: The pancreases of 3 male rats weighing 150-200 g were removed and ground with a Polytron; from tissue; host or cells: rat pancreas membrane homogenate
T1 sequence (P30551 1-444): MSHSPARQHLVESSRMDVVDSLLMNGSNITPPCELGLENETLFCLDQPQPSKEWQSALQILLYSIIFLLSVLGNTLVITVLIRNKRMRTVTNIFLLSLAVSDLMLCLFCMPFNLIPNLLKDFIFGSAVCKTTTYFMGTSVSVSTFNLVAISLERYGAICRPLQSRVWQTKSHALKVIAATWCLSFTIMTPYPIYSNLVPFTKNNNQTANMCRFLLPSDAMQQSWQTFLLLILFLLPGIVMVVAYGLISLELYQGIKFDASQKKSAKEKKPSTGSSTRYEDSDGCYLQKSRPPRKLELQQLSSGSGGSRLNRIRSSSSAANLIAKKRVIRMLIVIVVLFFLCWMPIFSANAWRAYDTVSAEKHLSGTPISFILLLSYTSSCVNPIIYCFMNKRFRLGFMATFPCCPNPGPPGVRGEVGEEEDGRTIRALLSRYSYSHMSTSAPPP
The assay can be described thus: Peripheral receptors: 3H CCK8 binding to rat pancreas homogenate. To be noted: 3H CCK8, 25° C., 60 minutes, read-out: Peripheral CCK IC50: concentration necessary to inhibit the fixed specific radioactivity by 50%. How it is done:
The pancreases of 3 male rats weighing 150-200 g were removed and ground with a Polytron (4 grindings, speed 3, with an interval of 10 seconds between grindings) and the homogenate was filtered over a gauze, then centrifuged at 30,000 g for 30 minutes. The residue obtained was taken up in 400 volumes (.perspectiveto.600 ml) of Tris 50 mM HCl buffer, pH 7.4, containing 2 g/liter of BSA, 0.1 mM of bacitracin, 5 mM of MgCl2 and 5 mM of dithiothreitol. 2 ml of homogenate aliquots were incubated at 25° C. for 60 minutes in the presence of […] 3H CCK8 and the product to be tested (10,000 micromoles for 1 dose or with a range of 7 doses) and cold CCK8 (10^-6 M) which was the reference product. After returning to 0° C., the aliquots were filtered with Whatman GF/B filters having been previously washed in a 0.05% solution of polyethyleneimine. The filtrate was washed with 3×5 ml of Tris HCl 50 mM buffer, pH 7.4. The results are expressed in IC50 : concentration necessary to inhibit the fixed specific radioactivity by 50%. (IC50 in nanomoles).

For assay [1], the system named is alimentary intake of a rat. The assay can be described thus: Action on the alimentary intake of a rat. Format: in vivo. As to conditions: 10 mg/kg intra-peritoneally, consumption monitored every hour for 5 hours. How it is done:
The tests were carried out on groups of 5 rats weighing 250±10 g under the following conditions: the animals were placed individually in cages having a feeding trough described by FREGLY (J. Appln. Physiol., 1960, Vol. 15, p. 539) which had the advantage of avoiding the wastage of food presented when using powdered fodder. The rats were accustomed to taking their daily ration over 5 consecutive hours, drinking water being offered ad libitum. The amounts of food ingested were determined individually by weighing the feeding troughs and the consumptions were monitored every hour for 5 hours after the administration of 10 mg/kg of the compound intra-peritoneally. The amounts consumed were expressed in g/100 g of body weight per hour and the averages were compared with those obtained from the control animals by a DUNNET test.

A further assay addresses T2, Central CCK receptors (Rattus norvegicus, UniProt P30553).
T2 construct: The cortices of 20 male rats weighing 150 to 200 g were removed and were ground up with a Polytron; from tissue; host or cells: rat cerebral cortex membrane homogenate
T2 sequence (P30553 1-452): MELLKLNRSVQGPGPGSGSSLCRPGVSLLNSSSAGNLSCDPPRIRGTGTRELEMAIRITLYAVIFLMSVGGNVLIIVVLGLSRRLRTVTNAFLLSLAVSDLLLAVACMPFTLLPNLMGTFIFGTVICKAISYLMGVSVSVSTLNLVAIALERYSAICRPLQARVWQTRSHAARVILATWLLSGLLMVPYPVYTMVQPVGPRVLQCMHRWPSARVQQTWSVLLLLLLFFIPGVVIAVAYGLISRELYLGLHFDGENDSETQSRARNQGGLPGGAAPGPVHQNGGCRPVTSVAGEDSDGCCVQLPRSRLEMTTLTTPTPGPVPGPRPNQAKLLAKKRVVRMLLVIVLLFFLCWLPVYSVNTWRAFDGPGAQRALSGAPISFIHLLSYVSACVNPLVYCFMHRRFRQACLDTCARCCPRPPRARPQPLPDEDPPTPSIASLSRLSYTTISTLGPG
The assay is described as follows: Central receptors: 3H CCK8 binding to rat cortex homogenate. As to conditions: 0.5 nM 3H CCK8, 25° C., 30 minutes, read-out: Central CCK IC50: concentration necessary to inhibit the fixed specific radioactivity by 50%. The method, then:
The cortices of 20 male rats weighing 150 to 200 g were removed and were ground up with a Polytron in 0.32M sucrose. After centrifuging, the supernatant was collected and centrifuged. The residue was suspended in 120 ml of Hepes buffer, pH 7.4, (Hepes 10 mM, NaCl 130 mM, MgCl2, 6H2 O 5 mM, bacitracine 250 mg/liter, PMSF 1 mg/liter), and re-centrifuged. The residue was taken up in 120 ml of Hepes buffer pH 7.4, and recentrifuged at 30,000 g for 30 minutes. The residue was then taken up in 500 ml of Hepes buffer pH 7.4, which enabled 240 aliquots of 2 ml of homogenate to be obtained. The incubation was carried out at 25° C. for 30 minutes in the presence of 0.5 nM of 3H CCK8 and the product to be tested (10,000 micromoles for 1 dose, or with a range of 7 doses) or cold CCK8 (10^-6 M), which was the reference product. After the homogenate aliquots were returned to 0° C., they were filtered with Whatman GF/B filters and the filtrates were washed with 3×5 ml of a Tris HCl 50 mM buffer, pH 7.4. The results are expressed in IC50 : concentration necessary to inhibit the fixed specific radioactivity by 50% in the Table below.

Each structure is given as a SMILES string.

With `Cc1ccc(C(NC(=O)[C@H](CCC(=O)O)NC(=O)c2cc3ccccc3[nH]2)c2ccc(C)cc2)cc1` [Example 2, (S)-4-[[(1H-indol-2-yl)-carbonyl]-amino]-5-[[bis-(4-methylphenyl)-methyl]-amino]-5-oxo pentanoic acid], the figures for the IC50 at Peripheral CCK receptors and on Central CCK receptors were 53 nM and 700 nM, respectively. Further, the “reduction of alimentary consumption relative to control animals” value in assay [1] worked out at 15%.

For `O=C(O)CC[C@H](NC(=O)c1cc2ccccc2[nH]1)C(=O)NC(c1ccc(Cl)cc1)c1ccc(Cl)cc1` [Example 4, (S)-5-[[bis-(4-chlorophenyl)-methyl]-amino]-5-oxo-4-[[(1H-indol-2-yl)-carbonyl]-amino]-pentanoic acid], the IC50 turned out to be 96 nM at Peripheral CCK receptors and 10000 nM on Central CCK receptors.

For the compound `COc1ccccc1C(NC(=O)[C@H](CCC(=O)O)NC(=O)c1cc2ccccc2[nH]1)c1ccccc1` (stereo partly drawn) [Example 9, (4S)-4-[[(1H-indol-2-yl)-carbonyl]-amino]-5-[[(2-methoxyphenyl)-benzyl]-amino]-5-oxo pentanoic acid], the IC50 is 32 nM on Peripheral CCK receptors and 682 nM at Central CCK receptors. Besides, the “reduction of alimentary consumption relative to control animals” value in assay [1] is “more than 50%”.

For the compound `O=C(O)CC[C@H](NC(=O)c1cc2ccccc2[nH]1)C(=O)NC1c2ccccc2CCc2ccccc21` [Example 13, (S)-5-[(10,11-dihydro-dibenzo-[a,d]-cyclohepten-5-yl)-amino]-4-[[(1H-indol-2-yl)-carbonyl]-amino]-5-oxo pentanoic acid], the IC50 is 1660 nM on Peripheral CCK receptors and 2660 nM at Central CCK receptors.

Source of the values: US5064853A, “4(2-indolyl)2-amino-pentanedioic acids and cholecyostokinin use thereof” (Roussel Uclaf, priority 1989, dated 1991).
